The values that follow come from ChEMBL document CHEMBL1140323, “Biaryl ureas as potent and orally efficacious melanin concentrating hormone receptor 1 antagonists for the treatment of obesity” (J Med Chem, 2005).

Data set [1] addresses T1, Melanin-concentrating hormone receptor 1 (Homo sapiens, UniProt Q99705). The data set can be described thus: Inhibition of human melanin concentrating hormone receptor 1.
Data set [2] is described as follows: Area under curve(0-6 h) for the compound administered orally at 10 mg/kg in rat. The format is ADME, organism-based. More on the design: time < 6 hr, dose 10 mg/kg, route oral. The following applies: in vivo, po.
The test system of data set [3] is Rattus norvegicus. The data set can be described thus: Ability (3 mg/kg) required to suppression the body weight gain relative to control. In kind it is functional.
Data set [4] concerns Rattus norvegicus. The data set can be described thus: Ability (10 mg/kg) required to produce a dose dependent decrease in food intake. The format is functional.
For data set [5], the system named is Mus musculus. The data set can be described thus: Oral administration (30 mg/kg) required to reduced food intake relative to control at 24 hr post dose. In kind it is functional.
For data set [6], the system named is Rattus norvegicus. The data set is described as follows: Ability (3 mg/kg) required to produce a dose dependent decrease in food intake. In kind it is functional.
For data set [7], the system named is Mus musculus. The data set can be described thus: Oral administration (30 mg/kg) required to reduced food intake relative to control at 6 hr post dose. In kind it is functional.
The test system of data set [8] is Rattus norvegicus. The data set can be described thus: Ability (10 mg/kg) required to suppression the body weight gain relative to control. The format is functional.
Data set [9] addresses T1, Melanin-concentrating hormone receptor 1. The data set is described as follows: Inhibition of calcium influx into cells expressing hMCH-R1 in FLIPR assay. The format is functional.
The test system of data set [10] is Mus musculus. The data set is described as follows: Oral administration (30 mg/kg) required to reduced food intake relative to control at 4 hr post dose. In kind it is functional.
Data set [11] addresses Sodium-dependent serotonin transporter (Rattus norvegicus, UniProt P31652). The data set is described as follows: Inhibition of 5-hydroxytryptamine reuptake by serotonin transporter.

T1 sequence (Q99705 whole entry): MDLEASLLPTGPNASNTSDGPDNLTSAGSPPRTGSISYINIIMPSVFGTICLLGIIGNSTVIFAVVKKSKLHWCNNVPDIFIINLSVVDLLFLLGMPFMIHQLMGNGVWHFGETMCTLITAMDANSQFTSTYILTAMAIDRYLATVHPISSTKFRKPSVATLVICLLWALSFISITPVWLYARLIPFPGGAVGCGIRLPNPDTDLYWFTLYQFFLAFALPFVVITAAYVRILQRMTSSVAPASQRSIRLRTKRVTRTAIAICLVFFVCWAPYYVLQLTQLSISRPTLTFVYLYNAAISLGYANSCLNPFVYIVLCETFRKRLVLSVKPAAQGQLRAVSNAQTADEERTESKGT
Sodium-dependent serotonin transporter, sequence (P31652 whole entry): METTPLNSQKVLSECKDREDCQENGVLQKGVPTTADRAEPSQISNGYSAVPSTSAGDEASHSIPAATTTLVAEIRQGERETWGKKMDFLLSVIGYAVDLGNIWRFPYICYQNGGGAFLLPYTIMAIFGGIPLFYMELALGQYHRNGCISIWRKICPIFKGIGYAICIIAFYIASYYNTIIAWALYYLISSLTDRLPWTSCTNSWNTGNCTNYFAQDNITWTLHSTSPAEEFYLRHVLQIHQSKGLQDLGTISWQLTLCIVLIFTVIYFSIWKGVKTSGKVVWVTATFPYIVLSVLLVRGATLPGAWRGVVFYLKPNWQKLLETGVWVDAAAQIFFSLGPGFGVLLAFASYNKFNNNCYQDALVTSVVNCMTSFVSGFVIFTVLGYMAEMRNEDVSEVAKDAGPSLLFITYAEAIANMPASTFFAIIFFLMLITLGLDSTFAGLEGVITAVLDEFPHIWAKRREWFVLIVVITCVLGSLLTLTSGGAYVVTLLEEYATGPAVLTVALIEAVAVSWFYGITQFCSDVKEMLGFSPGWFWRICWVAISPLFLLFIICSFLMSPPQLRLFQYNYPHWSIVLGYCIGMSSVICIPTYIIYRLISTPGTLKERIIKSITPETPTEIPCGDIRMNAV

`CC(C)C(=O)N1CCC(N(C(=O)Nc2ccc(F)c(C(F)(F)F)c2)c2ccc(-c3cccc(C#N)c3)cc2)CC1` gave a Ki in data set [1] of 374 nM.

As for `CN(C)CCN(C(=O)Nc1ccc(C(F)(F)F)c(F)c1)c1ccc(-c2cccc(C#N)c2)cc1`, in [2], the AUC(0-t) at 6 h came out at 4800 ng·h/mL. Besides, the affinity in data set [1] corresponds to a Ki of 6 nM.

In the case of `CN(C)CCN(C(=O)Nc1cc(Cl)cc(Cl)c1)c1ccc(-c2cccc(C#N)c2)cc1`, the Ki in data set [1] is 19 nM. In other words, the double-digit nanomolar range.

On to `N#Cc1cccc(-c2ccc(N(CCN3CCCC3)C(=O)Nc3ccc(C(F)(F)F)c(F)c3)cc2)c1`, for which the AUC(0-t) at 6 h in data set [2] was 967 ng·h/mL.

Consider `N#Cc1cccc(-c2ccc(N(CCN3CC[C@H](O)C3)C(=O)Nc3ccc(C(F)(F)F)c(F)c3)cc2)c1`, for which the AUC(0-t) at 6 h in [2] turned out to be 1450 ng·h/mL. For the same compound, in data set [1], the affinity corresponds to a Ki of 7.3 nM.

In the case of `N#Cc1cccc(-c2ccc(N(CCN3CC[C@@H](O)C3)C(=O)Nc3ccc(C(F)(F)F)c(F)c3)cc2)c1`, the Body weight gain turned out to be 1.2 g in the data set on Rattus norvegicus [3] and 2.2 g in the data set on Rattus norvegicus [8]. In addition, the Food intake in the data set on Rattus norvegicus [4] amounted to 13.2%; with Mus musculus [5] it was 14%; with Rattus norvegicus [6] it was 16.9%; with Mus musculus [7], 17%; with Mus musculus [10] it was 16%. The compound also returned an AUC(0-t) at 6 h in data set [2] of 5470 ng·h/mL. Moreover, in [1], the Ki is 8.9 nM. Moreover, the Kb in data set [9] stood at 2 nM.

Compound `CN1CCN(CCN(C(=O)Nc2ccc(C(F)(F)F)c(F)c2)c2ccc(-c3cccc(C#N)c3)cc2)CC1` registered an AUC(0-t) at 6 h in [2] of 542 ng·h/mL. Besides, the Ki in data set [11] was above 1000 nM; in data set [1], 8.2 nM.

`CN(C)CCN(C(=O)Nc1ccc(F)c(Cl)c1)c1ccc(-c2cccc(C#N)c2)cc1` gave an AUC(0-t) at 6 h in [2] of 1950 ng·h/mL. The results for the Ki in data set [11] and in data set [1] were 1080 nM and 3.3 nM, respectively. Moreover, the Kb in [9] was 3.1 nM.

Consider `CCS(=O)(=O)N1CCC(N(C(=O)Nc2ccc(F)c(C(F)(F)F)c2)c2ccc(-c3cccc(C#N)c3)cc2)CC1`, for which the affinity in data set [1] corresponds to a Ki of 166 nM. This lies in the sub-micromolar range.

Turning to `N#Cc1cccc(-c2ccc(N(CCN3CC[C@@H](O)C3)C(=O)Nc3ccc(F)c(Cl)c3)cc2)c1`, in data set [2], the AUC(0-t) at 6 h stood at 1080 ng·h/mL. The Ki in [1] was determined as 7.1 nM.

With `CNCCN(C(=O)Nc1ccc(F)c(Cl)c1)c1ccc(-c2cccc(C#N)c2)cc1`, in [1], the Ki worked out at 6 nM. The Kb in [9] is 6.2 nM.

In turn, `N#Cc1cccc(-c2ccc(N(CCN3CC[C@@H](O)C3)C(=O)Nc3cc(Cl)cc(Cl)c3)cc2)c1` yielded an AUC(0-t) at 6 h in data set [2] of 1850 ng·h/mL. For the same compound, the inhibitory constant (Ki) in data set [1] amounted to 11 nM.

Compound `N#Cc1cccc(-c2ccc(N(CCN3CC[C@@H](O)C3)C(=O)Nc3ccc(F)c(C(F)(F)F)c3)cc2)c1` displayed an AUC(0-t) at 6 h in data set [2] of 2790 ng·h/mL. In data set [1], this compound returned a Ki of 1.8 nM. Moreover, the Kb in [9] is 8 nM.

As usually defined, the Ki is a measure of affinity in units of concentration, obtained from inhibition or displacement. Read a high Ki as lower affinity. By AUC(0-t) is commonly meant the area under the concentration-time curve up to a stated or last time point. Higher therefore signals high exposure.
